Consider two molecules from publication PMC4995014, “Identification of ABC Transporter Interaction of a Novel Cyanoquinoline Radiotracer and Implications for Tumour Imaging by Positron Emission Tomography” (PLoS ONE, 2016).

In general, IC50 refers to the concentration that inhibits the measured activity by half.

One data set concerns the target T1, EGFR L858R (H3255 cells) (Homo sapiens, UniProt P00533, L858R).
T1 construct: host or cells: H3255
Kind of data set: Inhibition of EGFR autophosphorylation (p-EGFR Y1068, western blot) in H3255 cells. In kind it is cell-based. The note with it: 3 h incubation, densitometry of western blots. The method, then:
(§1) Affinity of the cyanoquinolines for EGFR was established by measuring their inhibition of EGFR autophosphorylation via western blot. Cells were seeded in 6 well plates and following 24 h of growth, were subject to overnight serum starvation. The cells were then treated with increasing concentrations of cyanoquinolines prepared in serum free growth media from a DMSO stock (final DMSO concentration < 1%) for 3 h at 37°C, and stimulated for receptor autophosphorylation by addition of 100 ng/mL of EGF during the last 15 minutes of drug incubation. After 3 h the cells were placed on ice, media removed and then the cells were washed two times with ice cold phosphate buffered saline (PBS). Lysates were analysed by western blot to measure changes to p-EGFR Y1068.
(§2) Cells were collected into a microcentrifuge tube and sonicated for 30 seconds on ice. Cellular protein levels were assessed using a bicinchoninic acid (BCA) protein assay kit according to the manufacturer’s instructions (Thermo scientific). […] Samples were transferred to polyvinylidene difluoride (PVDF) membrane using Trans-Blot Turbo system BIO-RAD (Hercules, California, USA). […] The membranes were then incubated overnight with primary antibody prepared in 1% milk or 1% BSA in TBST. […] Membranes were washed a further three times for 10 minutes with TBST. […]

Data set [1] has as its target T2, EGFR Del E746-A750/T790M (PC9ER cells) (Homo sapiens, UniProt P00533, DEL746-750/T790M).
T2 construct: endogenous in cells; host or cells: PC9ER (Dr Olivier Pardo, Imperial College London)
The data set is described as follows: Inhibition of EGFR autophosphorylation (p-EGFR Y1068, western blot) in PC9ER cells. It is filed as cell-based. The method, then:
as §1
Cells were collected into a microcentrifuge tube and sonicated for 30 seconds on ice. Cellular protein levels were assessed using a bicinchoninic acid (BCA) protein assay kit according to the manufacturer’s instructions (Thermo scientific). […] Samples were transferred to polyvinylidene difluoride (PVDF) membrane using Trans-Blot Turbo system BIO-RAD (Hercules, California, USA). […] The membranes were then incubated overnight with primary antibody prepared in 1% milk or 1% BSA in TBST. […] Membranes were washed a further three times for 10 minutes with TBST. Blots were visualised using chemoluminescence (ECL, GE Healthcare, Little Chalfont, UK) and developed on Amersham Hyperfilm ECL (GE Healthcare). β-Actin was used as a loading control.
A general note: In western blotting, separated proteins are transferred to a membrane and probed.

In another data set the test system is EGFR. Details: method as in PMID 20797871, PMID 24307532. The note with it: cell-free; read-out: IC50 for inhibition of cell-free EGFR phosphorylation; cited from earlier work.
The target of data set [2] is T3, EGFR L858R/T790M (H1975 cells) (Homo sapiens, UniProt P00533, L858R/T790M).
T3 construct: host or cells: H1975
T3 sequence (P00533 25-1210 T790M/L858R): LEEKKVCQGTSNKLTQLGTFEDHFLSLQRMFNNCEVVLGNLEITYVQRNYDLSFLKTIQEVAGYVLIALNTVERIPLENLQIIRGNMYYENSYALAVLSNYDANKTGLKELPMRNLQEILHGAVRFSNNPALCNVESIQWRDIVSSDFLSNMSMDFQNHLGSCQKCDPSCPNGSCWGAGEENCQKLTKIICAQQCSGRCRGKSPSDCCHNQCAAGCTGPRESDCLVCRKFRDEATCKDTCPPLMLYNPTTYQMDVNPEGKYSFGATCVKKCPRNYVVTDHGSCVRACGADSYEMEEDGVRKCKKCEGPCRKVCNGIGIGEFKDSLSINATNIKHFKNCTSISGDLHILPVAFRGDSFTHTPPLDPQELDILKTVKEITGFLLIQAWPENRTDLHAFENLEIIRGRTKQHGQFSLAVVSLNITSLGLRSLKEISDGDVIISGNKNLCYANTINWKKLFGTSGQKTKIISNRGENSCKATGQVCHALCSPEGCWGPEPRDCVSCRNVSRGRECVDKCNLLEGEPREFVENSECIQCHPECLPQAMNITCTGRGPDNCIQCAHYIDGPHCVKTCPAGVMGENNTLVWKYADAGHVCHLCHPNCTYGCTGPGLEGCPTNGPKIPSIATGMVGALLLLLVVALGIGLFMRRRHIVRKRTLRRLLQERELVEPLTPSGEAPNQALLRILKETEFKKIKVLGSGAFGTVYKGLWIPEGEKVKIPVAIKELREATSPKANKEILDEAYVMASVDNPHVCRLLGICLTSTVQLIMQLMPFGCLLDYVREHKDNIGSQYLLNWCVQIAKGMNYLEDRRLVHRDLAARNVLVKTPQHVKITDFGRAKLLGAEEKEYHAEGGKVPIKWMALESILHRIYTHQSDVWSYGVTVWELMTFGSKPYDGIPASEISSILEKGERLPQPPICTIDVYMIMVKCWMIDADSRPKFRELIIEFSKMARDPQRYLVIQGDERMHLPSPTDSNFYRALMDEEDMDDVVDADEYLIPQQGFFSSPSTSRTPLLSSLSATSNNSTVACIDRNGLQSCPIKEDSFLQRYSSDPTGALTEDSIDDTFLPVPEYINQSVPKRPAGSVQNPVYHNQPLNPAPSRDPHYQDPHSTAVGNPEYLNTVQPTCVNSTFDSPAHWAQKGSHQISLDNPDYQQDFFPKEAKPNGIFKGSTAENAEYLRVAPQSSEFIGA
The data set is described as follows: Inhibition of EGFR autophosphorylation (p-EGFR Y1068, western blot) in H1975 cells. It is filed as cell-based. The conditions noted are these: 3 h incubation, densitometry of western blots. On the procedure:
as §1, §2

The target in data set [3] is T4, EGFR Del E746-A750 (PC9 cells) (Homo sapiens, UniProt P00533, DEL746-750).
T4 construct: endogenous in cells; host or cells: PC9 (Dr Olivier Pardo, Imperial College London)
T4 sequence (P00533 with tags, fused parts or gaps DEL746-750): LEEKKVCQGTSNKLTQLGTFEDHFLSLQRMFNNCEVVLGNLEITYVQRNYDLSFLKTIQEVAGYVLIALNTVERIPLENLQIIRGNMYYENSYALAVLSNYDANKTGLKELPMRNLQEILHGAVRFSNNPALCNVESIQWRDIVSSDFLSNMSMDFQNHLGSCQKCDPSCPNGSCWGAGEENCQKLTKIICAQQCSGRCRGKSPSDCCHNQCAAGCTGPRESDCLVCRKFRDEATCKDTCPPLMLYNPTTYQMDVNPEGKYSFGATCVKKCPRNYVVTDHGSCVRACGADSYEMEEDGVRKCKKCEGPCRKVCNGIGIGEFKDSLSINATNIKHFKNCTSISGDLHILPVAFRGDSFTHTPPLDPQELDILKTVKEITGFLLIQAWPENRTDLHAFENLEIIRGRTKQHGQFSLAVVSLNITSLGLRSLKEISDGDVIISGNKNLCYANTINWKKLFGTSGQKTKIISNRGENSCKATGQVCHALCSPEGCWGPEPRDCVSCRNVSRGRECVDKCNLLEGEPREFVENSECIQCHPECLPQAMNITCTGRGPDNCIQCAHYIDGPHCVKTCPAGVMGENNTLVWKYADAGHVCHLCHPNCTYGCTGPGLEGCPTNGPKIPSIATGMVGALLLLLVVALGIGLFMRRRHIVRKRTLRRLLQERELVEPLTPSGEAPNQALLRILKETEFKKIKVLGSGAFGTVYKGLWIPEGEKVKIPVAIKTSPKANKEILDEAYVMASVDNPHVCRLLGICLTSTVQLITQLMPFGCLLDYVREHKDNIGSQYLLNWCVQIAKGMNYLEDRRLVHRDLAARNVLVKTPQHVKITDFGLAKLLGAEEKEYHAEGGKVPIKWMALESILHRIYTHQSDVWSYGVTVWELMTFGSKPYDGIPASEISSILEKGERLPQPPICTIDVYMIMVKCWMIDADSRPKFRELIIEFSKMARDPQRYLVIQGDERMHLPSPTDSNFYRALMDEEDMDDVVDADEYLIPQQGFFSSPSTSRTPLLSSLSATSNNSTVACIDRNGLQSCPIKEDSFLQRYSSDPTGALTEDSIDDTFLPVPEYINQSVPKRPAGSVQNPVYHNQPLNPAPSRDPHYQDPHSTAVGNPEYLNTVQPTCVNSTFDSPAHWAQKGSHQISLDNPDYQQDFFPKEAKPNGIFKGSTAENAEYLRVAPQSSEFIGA
Kind of data set: Inhibition of EGFR autophosphorylation (p-EGFR Y1068, western blot) in PC9 cells. It is filed as cell-based. The conditions noted are these: 3 h incubation, densitometry of western blots. On the procedure:
as §1, §2

In the next data set the test system is caco2 cells. Kind of data set: Caco2 transwell assay. In kind it is in vitro ADME, human. The conditions noted are these: pre-treatment with zosuquidar. On the procedure: (§3) The caco2 transwell assay was performed to assess permeability. Cells were seeded at a density of 60,000 cells per well in 24 well transwell plates (Millipore, Billerica, Massachutsetts, USA), and maintained in DMEM supplemented with […] glucose (20% FBS, 1% penicillin/streptomycin, 1% glutamine) for 21 days at 37°C in 5% CO2. After 21 days the cells differentiate into enterocytes and express all three MDR proteins, ABCB1 and ABCG2 at the apical side and ABCC1 on the basal side. On day 21, cells were washed three times with Hank's Balanced Salt Solution (HBSS) (Fisher scientific, Loughborough, UK) and the trans-epithelial electric resistance (TERR) was measured using an Epithelial Voltohmmeter (EVOM) (World Precision Instruments, Sarasota, USA); only transwells with TERR of 400 Ω/cm^2 or above were used for the experiment. Cells were treated either at the apical (n = 3) or basal (n = 3) side of the transwell by addition of 10 μM of cyanoquinoline compound or 50 μM vinblastine prepared in a volume of 400 μL HBSS (compound added to apical well) or 800 μL of HBSS (added to basal well). When transport inhibitors FTC (10 μM) or zosuquidar (0.3 μM) were used, they were added to both the apical and basal wells 1 h prior to drug treatment. After 1 h pre-treatment the medium was removed and cells were treated with the compounds prepared in HBSS containing FTC or Zosuquidar.
(§4) Plates were incubated in shaker incubator at 37°C and 60 rpm for 120 min. After incubation, 200 μL aliquots from the apical and the basal wells were collected and analysed using high performance liquid chromatography (HPLC). Samples were run on a Millipore Waters HPLC system which included a 717 plus autosampler and 2487 dual wavelength absorbance detector system. The stationary phase comprised of a Phenomenex Luna C18 reverse phase column (150 X 4.6 mm; 5 μm particle size). The mobile phase comprised water (0.1% TFA) and acetonitrile (0.1% TFA) (80:20 v/v) at a flow rate of 1 mL/min for all compounds except vinblastine. For vinblastine, the stationary phase comprised a Supelcosil LC-ABZ reverse phase column (5 × 4.6 mm; 5 μm particle size). The mobile phase comprised water (0.1% formic acid) and methanol (90:10 to 10:90 v/v gradient over 20 min). Peak areas corresponding to the compounds of interest were recorded. Using standard curves the areas under the curve were converted into concentrations of compound. The permeability coefficient (Papp) was calculated using the following equation [30]: Papp = (dQ/dt)/A C0, where A is the surface area of the transwell membrane in cm^2 (= 0.33 cm^2), C0 is the drug concentration in the donor chamber at time t = 0 and dQ/dt is the rate of transfer of the compound to the receiver chamber, determined from the slope of the graph concentration (dQ) versus time (dt). Papp values corresponding to absorption and secretion were assessed and used to calculate efflux ratio. Efflux ratio =(Papp B−A)/(Papp A−B) Where Papp A-B = Papp absorption and Papp B-A = Papp secretion.
(§5) The integrity of the caco2 cell membrane was assessed for each well following the experiment by addition of a 100 μM solution of […] (Sigma) in HBSS to the apical side of the plate. The plates were placed in the shaker incubator for 1 h at 37°C and 60 rpm. Samples from the basal wells were transferred into a 96 well plate and the levels of […] were assessed by measuring with an excitation of 450 nm and an emission of 540 nm using the PerkinElmer Wallac 1420 counter.

A short description of the next data set: Caco2 transwell assay. The conditions noted are these: human, Caco-2, no inhibitor; 10 μM cyanoquinoline or 50 μM vinblastine, 120 min; read-out: efflux ratio (Papp B-A / Papp A-B). In kind it is in vitro ADME, human. On the procedure: as §3, §4, §5
For a further data set, the system named is PC9 and PC9ER cells. Kind of data set: Cell uptake assay in PC9 versus PC9ER cells. In kind it is cell-based. The conditions noted are these: 1 h incubation. The method, then:
(§6) [^18F]FED6 and [^18F]FED20 were synthesised as previously reported. To increase specific radioactivity of [^18F]FED20, we modified the synthesis by decreasing the amount of alkyne precursor from 1 mg down to 0.5 mg. While this had the desired effect of increasing the specific activity from 7.3 GBq/μmol up to 52 GBq/μmol, the conversion of the alkyne to the triazole product dropped from > 95% down to 45%. Cells were seeded in 6 well plates and [^18F]FED6 (0.22 MBq) or [^18F]FED20 (0.55 MBq or 0.74 MBq) added to each well and incubated at 37°C for 1 h. Media were then removed and cells were washed twice with PBS. The cells were trypsinised and centrifuged for 3 minutes at 2000 rpm to obtain a pellet. The cell pellet was washed once with PBS and resuspended in 200 μL of RIPA buffer. Cell lysates were transferred to gamma counting tubes and the radioactivity in the pellet was measured on a Packard Cobra II gamma counter, (Perkin-Elmer, Waltham, Massachusetts, USA). Protein concentrations of samples were evaluated using Pierce® BCA Protein Assay Kit (Thermo Scientific, Waltham, Massachusetts, USA). Data were expressed as background- and decay-corrected counts per minute (CCPMA) per μg of cellular protein.

A further data set concerns cells. Kind of data set: Cell uptake assay, overall magnitude of uptake. It is filed as cell-based. The method, then:
as §6

T2 sequence (P00533 with tags, fused parts or gaps DEL746-750/T790M): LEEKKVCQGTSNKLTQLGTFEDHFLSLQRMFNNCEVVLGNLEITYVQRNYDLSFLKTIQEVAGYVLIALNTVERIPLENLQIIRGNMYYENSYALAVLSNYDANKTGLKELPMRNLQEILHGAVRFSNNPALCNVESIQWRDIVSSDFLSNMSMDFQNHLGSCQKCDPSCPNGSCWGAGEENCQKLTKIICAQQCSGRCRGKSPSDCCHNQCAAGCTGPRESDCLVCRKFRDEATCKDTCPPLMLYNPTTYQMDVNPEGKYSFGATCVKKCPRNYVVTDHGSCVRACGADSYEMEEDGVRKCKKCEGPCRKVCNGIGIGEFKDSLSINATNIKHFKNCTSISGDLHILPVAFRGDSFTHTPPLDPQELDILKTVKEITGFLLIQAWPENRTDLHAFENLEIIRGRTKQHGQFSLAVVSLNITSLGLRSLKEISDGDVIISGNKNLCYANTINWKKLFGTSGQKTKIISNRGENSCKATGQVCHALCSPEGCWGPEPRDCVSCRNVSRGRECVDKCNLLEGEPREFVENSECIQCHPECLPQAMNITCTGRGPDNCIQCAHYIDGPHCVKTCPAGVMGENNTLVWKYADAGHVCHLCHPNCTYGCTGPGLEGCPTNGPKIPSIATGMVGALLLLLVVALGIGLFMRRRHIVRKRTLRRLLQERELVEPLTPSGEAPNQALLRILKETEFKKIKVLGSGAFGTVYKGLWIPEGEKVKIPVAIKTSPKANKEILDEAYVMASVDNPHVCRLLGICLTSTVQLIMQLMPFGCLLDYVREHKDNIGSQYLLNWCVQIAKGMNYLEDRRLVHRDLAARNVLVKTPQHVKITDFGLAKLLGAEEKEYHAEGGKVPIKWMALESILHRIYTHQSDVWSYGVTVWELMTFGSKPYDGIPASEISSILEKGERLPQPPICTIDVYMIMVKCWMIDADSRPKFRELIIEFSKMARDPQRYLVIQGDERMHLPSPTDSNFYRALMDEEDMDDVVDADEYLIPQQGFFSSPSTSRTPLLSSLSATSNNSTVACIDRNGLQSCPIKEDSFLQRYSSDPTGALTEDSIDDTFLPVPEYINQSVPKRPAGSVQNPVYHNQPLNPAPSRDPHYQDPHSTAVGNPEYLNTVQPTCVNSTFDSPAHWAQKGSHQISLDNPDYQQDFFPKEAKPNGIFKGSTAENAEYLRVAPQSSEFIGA
T1 sequence (P00533 25-1210 L858R): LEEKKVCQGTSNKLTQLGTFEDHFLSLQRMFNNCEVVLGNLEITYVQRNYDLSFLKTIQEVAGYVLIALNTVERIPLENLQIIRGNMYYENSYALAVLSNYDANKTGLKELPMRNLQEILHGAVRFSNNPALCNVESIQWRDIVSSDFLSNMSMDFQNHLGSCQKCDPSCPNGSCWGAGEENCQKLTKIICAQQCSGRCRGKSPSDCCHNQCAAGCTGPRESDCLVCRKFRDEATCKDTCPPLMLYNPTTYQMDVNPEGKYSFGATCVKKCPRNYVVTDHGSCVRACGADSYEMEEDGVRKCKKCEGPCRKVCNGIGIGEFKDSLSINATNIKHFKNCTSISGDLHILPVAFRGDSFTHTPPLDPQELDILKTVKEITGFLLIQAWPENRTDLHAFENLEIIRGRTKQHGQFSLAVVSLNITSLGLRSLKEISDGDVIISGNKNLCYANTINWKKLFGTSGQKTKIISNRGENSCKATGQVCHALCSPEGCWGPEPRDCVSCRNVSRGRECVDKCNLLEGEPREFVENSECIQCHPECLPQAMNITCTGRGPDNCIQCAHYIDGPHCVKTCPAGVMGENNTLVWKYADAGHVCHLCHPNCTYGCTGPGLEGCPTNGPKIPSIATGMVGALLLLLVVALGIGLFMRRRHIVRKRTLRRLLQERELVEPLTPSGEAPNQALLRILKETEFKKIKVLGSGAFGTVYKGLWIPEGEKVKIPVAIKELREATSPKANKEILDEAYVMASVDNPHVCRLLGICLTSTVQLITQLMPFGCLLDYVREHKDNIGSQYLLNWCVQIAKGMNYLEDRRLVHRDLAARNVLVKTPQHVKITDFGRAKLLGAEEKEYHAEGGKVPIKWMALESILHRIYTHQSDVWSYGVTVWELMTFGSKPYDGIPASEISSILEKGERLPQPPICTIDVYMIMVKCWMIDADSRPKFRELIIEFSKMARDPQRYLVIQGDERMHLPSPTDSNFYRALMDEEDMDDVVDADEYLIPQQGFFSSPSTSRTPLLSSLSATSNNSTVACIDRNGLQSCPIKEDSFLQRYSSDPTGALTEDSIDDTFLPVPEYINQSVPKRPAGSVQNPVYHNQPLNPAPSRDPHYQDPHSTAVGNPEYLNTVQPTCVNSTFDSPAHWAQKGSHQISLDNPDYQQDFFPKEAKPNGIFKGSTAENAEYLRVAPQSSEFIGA

As for `CCOc1cc2ncc(C#N)c(Nc3ccc(F)c(Cl)c3)c2cc1NC(=O)/C=C/CNCc1cn([C@@H]2OC(CO)[C@@H](O)C(O)C2F)nn1` (stereo partly drawn) [FED20, (2E)-N-{4-[(3-chloro-4-fluorophenyl)amino]-3-cyano-7-ethoxyquinolin-6-yl}-4-[({1-[(2R,5S)-3-fluoro-4,5-dihydroxy-6-(hydroxymethyl)oxan-2-yl]-1H-1,2,3-triazol-4-yl}methyl)amino]but-2-enamide], the IC50 is 300 nM on EGFR L858R (H3255 cells); 700 nM in data set [1] (3 h incubation, densitometry of western blots); 4.5 nM with EGFR; 7100 nM in [2]; 300 nM in data set [3]. The “fold higher IC50 (p-EGFR) in PC9ER compared to PC9” value in data set [1] (PC9ER versus isogenic PC9) is 2 fold. In addition, in the data set with caco2 cells, the “efflux (permeability) ratio after pre-treatment with zosuquidar” value is recorded as “did not have any effect”. Besides, the efflux ratio at 120 min in the data set “Caco2 transwell assay” was 1.3.

As for `CCOc1cc2ncc(C#N)c(Nc3ccc(F)c(Cl)c3)c2cc1NC(=O)/C=C/CNCc1cn([C@@H]2OC(CO)[C@@H](O)C(O)C2[18F])nn1` (stereo partly drawn) [[^18F]FED20, [^18F](2E)-N-{4-[(3-chloro-4-fluorophenyl)amino]-3-cyano-7-ethoxyquinolin-6-yl}-4-[({1-[(2R,5S)-3-fluoro-4,5-dihydroxy-6-(hydroxymethyl)oxan-2-yl]-1H-1,2,3-triazol-4-yl}methyl)amino]but-2-enamide], the “fold higher uptake in PC9 compared to PC9ER cells” value in the data set with PC9 and PC9ER cells is recorded as 2 fold. Moreover, the “fold lower magnitude of uptake than [^18F]FED6” value in the data set with cells is recorded as more than 5 fold.
